Test results taken from US10183914B2 (BAYER CROPSCIENCE AKTIENGESELLSCHAFT, priority 2014, dated 2019).

Legend:
[1] = logp (HCOOH), physicochemical characterization; details: for chromatographic logP: HCOOH (formic acid)
[2] = tested on: Oryza sativa; experiment: Pre-emergence herbicidal effect and crop plant compatibility; format: in vivo; details: 3 weeks
Source text: (§1) Seeds of monocotyledonous and dicotyledonous weed plants and crop plants are laid out in wood-fiber pots in sandy loam and covered with soil. The compounds of the invention, formulated in the form of wettable powders (WP) or as emulsion concentrates (EC), are then applied to the surface of the covering soil as aqueous suspension or emulsion at a water application rate equating to 600 to 800 L/ha with addition of 0.2% wetting agent.
(§2) After the treatment, the pots are placed in a greenhouse and kept under good growth conditions for the trial plants. The damage to the trial plants is scored visually after a trial duration of 3 weeks by comparison with untreated controls (herbicidal activity in percent (%): 100% efficacy=the plants have died, 0% efficacy=like control plants).

[3] = tested on: Triticum aestivum (spring); experiment: as above; format: in vivo; details: 3 weeks
Source text: as §1, §2

[4] = tested on: Zea mays; experiment: as above; format: in vivo; details: 3 weeks
Source text: as §1, §2

[5] = tested on: Amaranthus retroflexus; experiment: Pre-emergence herbicidal effect; format: in vivo; details: 3 weeks
Source text: as §1, §2

[6] = tested on: Echinochloa crus-galli; experiment: Pre-emergence herbicidal effect; format: in vivo; details: 3 weeks
Source text: as §1, §2

[7] = tested on: Matricaria inodora; experiment: Pre-emergence herbicidal effect; format: in vivo; details: 3 weeks
Source text: as §1, §2

[8] = tested on: Setaria viridis; experiment: Pre-emergence herbicidal effect; format: in vivo; details: 3 weeks
Source text: as §1, §2

[9] = tested on: Stellaria media; experiment: Pre-emergence herbicidal effect; format: in vivo; details: 3 weeks
Source text: as §1, §2

[10] = tested on: Veronica persica; experiment: Pre-emergence herbicidal effect; format: in vivo; details: 3 weeks
Source text: as §1, §2

[11] = tested on: Viola tricolor; experiment: Pre-emergence herbicidal effect; format: in vivo; details: 3 weeks
Source text: as §1, §2

[12] = tested on: Oryza sativa; experiment: Post-emergence herbicidal effect and crop plant compatibility; format: in vivo; details: visual scoring after about 3 weeks
Procedure: (§3) Seeds of monocotyledonous and dicotyledonous weed and crop plants are laid out in sandy loam in wood-fiber pots, covered with soil and cultivated in a greenhouse under good growth conditions. 2 to 3 weeks after sowing, the test plants are treated at the one-leaf stage. The compounds of the invention, formulated in the form of wettable powders (WP) or as emulsion concentrates (EC), are then sprayed onto the green parts of the plants as aqueous suspension or emulsion at a water application rate equating to 600 to 800 L/ha with addition of 0.2% wetting agent. After the trial plants have been left to stand in a greenhouse under optimal growth conditions for about 3 weeks, the efficacy of the formulations is scored visually in comparison to untreated controls (herbicidal action in percent (%): 100% efficacy=the plants have died, 0% efficacy=like control plants).

[13] = tested on: Triticum aestivum (spring); experiment: as above; format: in vivo; details: visual scoring after about 3 weeks
Procedure: as §3

[14] = tested on: Zea mays; experiment: as above; format: in vivo; details: visual scoring after about 3 weeks
Procedure: as §3

[15] = tested on: Avena fatua; experiment: Pre-emergence herbicidal effect; format: in vivo; details: 1280 g/ha, 3 weeks
Source text: as §1, §2

[16] = tested on: Polygonum convolvulus; experiment: Pre-emergence herbicidal effect; format: in vivo; details: 3 weeks
Source text: as §1, §2

[17] = tested on: Lolium multiflorum; experiment: Pre-emergence herbicidal effect; format: in vivo; details: 320 g/ha, 3 weeks
Source text: as §1, §2

[18] = tested on: Alopecurus myosuroides; experiment: Pre-emergence herbicidal effect; format: in vivo; details: 3 weeks
Source text: as §1, §2

[19] = tested on: Echinochloa crus-galli; experiment: Post-emergence herbicidal effect; format: in vivo; details: 320 g/ha, visual scoring after about 3 weeks
Procedure: as §3

| SMILES | ORYSA herbicidal activity in percent ([2]; 80 g/ha) [%] | ORYSA herbicidal activity in percent ([2]; 320 g/ha) [%] | TRZAS herbicidal activity in percent ([3]; 80 g/ha) [%] | TRZAS herbicidal activity in percent ([3]; 320 g/ha) [%] | ZEAMX herbicidal activity in percent ([4]; 80 g/ha) [%] | ZEAMX herbicidal activity in percent ([4]; 320 g/ha) [%] | AMARE herbicidal activity in percent ([5]; 80 g/ha) [%] | AMARE herbicidal activity in percent ([5]; 320 g/ha) [%] | ECHCG herbicidal activity in percent ([6]; 320 g/ha) [%] | MATIN herbicidal activity in percent ([7]; 320 g/ha) [%] | SETVI herbicidal activity in percent ([8]; 320 g/ha) [%] | STEME herbicidal activity in percent ([9]; 320 g/ha) [%] | VERPE herbicidal activity in percent ([10]; 80 g/ha) [%] | VERPE herbicidal activity in percent ([10]; 320 g/ha) [%] | VIOTR herbicidal activity in percent ([11]; 80 g/ha) [%] | VIOTR herbicidal activity in percent ([11]; 320 g/ha) [%] | post-emergence efficacy ORYSA ([12]; 80 g/ha) [%] | post-emergence efficacy ORYSA ([12]; 320 g/ha) [%] | post-emergence efficacy TRZAS ([13]; 80 g/ha) [%] | MATIN herbicidal activity in percent ([7]; 80 g/ha) [%] | further results |
| --- | --- | --- | --- | --- | --- | --- | --- | --- | --- | --- | --- | --- | --- | --- | --- | --- | --- | --- | --- | --- | --- |
| O=C1CC(c2ccc(F)cc2)Cc2nc(N[C@@H]3CCCc4ccccc43)ncc21 (stereo partly shown) [2.92] | 0 | 20 | 0 | 20 | 0 | 20 | 80 | 100 | 100 | 90 | 100 | 100 | 100 | 100 | 90 | 100 | 0 | 0 | 0 | – | logp (HCOOH) [1]: oily; logp (HCOOH): 4.05; 1H-NMR (CDCl3, 400 MHZ, δ in ppm): 1.95 (m, 3H, 2H; STEME herbicidal activity in percent ([9]; 80 g/ha): 100%; post-emergence efficacy TRZAS ([13]; 320 g/ha): 10%; post-emergence efficacy ZEAMX ([14]; 80 g/ha): 0%; post-emergence efficacy ZEAMX ([14]; 320 g/ha): 0% |
| CC(=O)c1cnc(N[C@@H]2CCc3c(F)cccc32)nc1 [1.90] | – | 20 | – | 0 | – | 20 | – | 90 | – | 100 | – | 80 | – | 100 | – | – | – | – | – | – | logp (HCOOH) [1]: solid; m.p.: 111.5° C.; logp (HCOOH): 2.43; 1H-NMR (CDCl3, 400 MHZ, δ in ppm:; ORYSA herbicidal activity in percent ([2]; 1280 g/ha): 20%; TRZAS herbicidal activity in percent ([3]; 1280 g/ha): 0%; ZEAMX herbicidal activity in percent ([4]; 1280 g/ha): 20%; AMARE herbicidal activity in percent ([5]; 1280 g/ha): 100%; AVEFA herbicidal activity in percent [15]: 100%; ECHCG herbicidal activity in percent ([6]; 1280 g/ha): 80%; MATIN herbicidal activity in percent ([7]; 1280 g/ha): 100%; POLCO herbicidal activity in percent ([16]; 1280 g/ha): 90%; STEME herbicidal activity in percent ([9]; 1280 g/ha): 100%; VERPE herbicidal activity in percent ([10]; 1280 g/ha): 100%; VIOTR herbicidal activity in percent ([11]; 1280 g/ha): 100% |
| Cc1ccc2c(c1)[C@H](Nc1ncc3c(n1)CC(C(C)C)CC3=O)[C@@H](C)C2 (stereo partly shown) [2.104] | 20 | 20 | 0 | – | 0 | 0 | – | 100 | – | 100 | 100 | 100 | 100 | 100 | 90 | 100 | 0 | 0 | 0 | 80 | LOLMU herbicidal activity in percent [17]: 90%; POLCO herbicidal activity in percent ([16]; 320 g/ha): 100%; STEME herbicidal activity in percent ([9]; 80 g/ha): 100%; post-emergence efficacy TRZAS ([13]; 320 g/ha): 0%; post-emergence efficacy ZEAMX ([14]; 80 g/ha): 0%; post-emergence efficacy ZEAMX ([14]; 320 g/ha): 0% |
| CC(=O)c1cnc(N[C@@H]2CCCc3ccccc32)nc1C [1.82, 1-{4-methyl-2-[(1R)-1,2,3,4-tetrahydronaphthalen-1-ylamino]pyrimidin-5-yl}ethanone] | 0 | 3 | 0 | 0 | 0 | – | 90 | 90 | – | 90 | – | 100 | 100 | 100 | 100 | 100 | – | – | – | 90 | chromatographic logP [1]: 3.03; POLCO herbicidal activity in percent ([16]; 320 g/ha): 80%; post-emergence efficacy TRZAS ([13]; 320 g/ha): 0% |
| CC(C)C1CC(=O)c2cnc(N[C@@H]3CCCc4ccccc43)nc2C1 (stereo partly shown) [2.102] | 0 | 0 | 0 | 0 | 0 | 0 | 80 | 100 | 100 | 100 | 100 | 100 | 100 | 100 | 100 | 100 | 0 | 0 | 20 | 90 | ALOMY herbicidal activity in percent ([18]; 320 g/ha): 100%; LOLMU herbicidal activity in percent [17]: 100%; POLCO herbicidal activity in percent ([16]; 320 g/ha): 90%; SETVI herbicidal activity in percent ([8]; 80 g/ha): 100%; STEME herbicidal activity in percent ([9]; 80 g/ha): 100%; post-emergence efficacy ZEAMX ([14]; 80 g/ha): 0%; post-emergence efficacy ZEAMX ([14]; 320 g/ha): 0%; post-emergence efficacy ECHCG [19]: 100% |
| CC(=O)c1cnc(N[C@@H]2CCCc3cc(F)ccc32)nc1C [1.88] | 0 | – | 0 | 0 | 0 | 0 | 80 | 100 | – | 100 | – | 100 | 100 | 100 | – | 90 | 0 | 0 | 0 | 100 | post-emergence efficacy TRZAS ([13]; 320 g/ha): 20%; post-emergence efficacy ZEAMX ([14]; 80 g/ha): 0%; post-emergence efficacy ZEAMX ([14]; 320 g/ha): 10% |
| CC(=O)c1cnc(NC2CCOc3c(C)cccc32)nc1 (racemic) [1.8] | – | – | 0 | 0 | 0 | 0 | 100 | 100 | 90 | 100 | 80 | – | – | 100 | – | 100 | – | – | – | – | ALOMY herbicidal activity in percent ([18]; 80 g/ha): 0%; ALOMY herbicidal activity in percent ([18]; 320 g/ha): 0% |
| CC(=O)c1cnc(N[C@@H]2CCCc3ccccc32)nc1 [1.3, 1-{2-[(1R)-1,2,3,4-tetrahydronaphthalen-1-ylamino]pyrimidin-5-yl}ethanone] | 20 | – | 20 | 20 | 20 | – | 100 | 100 | 100 | 100 | 80 | 90 | 100 | 100 | – | – | – | – | – | 90 | chromatographic logP [1]: 2.51; ECHCG herbicidal activity in percent ([6]; 80 g/ha): 80%; POLCO herbicidal activity in percent ([16]; 80 g/ha): 80%; POLCO herbicidal activity in percent ([16]; 320 g/ha): 100% |
